The test system of assay [1] is CCRF-CEM. Briefly: Cytotoxicity against human vinblastine-resistant CCRF-CEM cells after 72 hrs by XTT assay. The format is functional, cell-based. In general terms: Formazan colour is commonly taken as a measure of viable cells.
For assay [2], the system named is CCRF-CEM. In words: Cytotoxicity against human CCRF-CEM cells after 72 hrs by XTT assay. The format is functional, cell-based.
The test system of assay [3] is CCRF-CEM. In words: Cytotoxicity against human taxol-resistant CCRF-CEM cells after 72 hrs by XTT assay. Type of assay: functional, cell-based.
The subject of assay [4] is CCRF-CEM. In words: Cross-resistance, IC50 for human vinblastine-resistant CCRF-CEM cells to IC50 for human CCRF-CEM cells. The format is functional.
Assay [5] has as its system CCRF-CEM. In words: Cross-resistance, IC50 for human taxol-resistant CCRF-CEM cells to IC50 for human CCRF-CEM cells. Type of assay: functional.
The test system of a further assay is MX1. In words: Cytotoxicity against human MX1 cells after 72 hrs by SRB assay. The format is functional, cell-based. The note with it: MX1, 72 h. On the technique in general: In SRB staining, fixed cells bind dye roughly in proportion to their protein.
A further assay relates to HCT-116. Briefly: Cytotoxicity against human HCT116 cells after 72 hrs by SRB assay. Particulars: HCT-116, 72 h. The format is functional, cell-based.
The nature of assay [6]: Cytotoxicity against human H1299 cells after 72 hrs by WST-1 assay. The note with it: NCI-H1299, 72 h. Type of assay: functional, cell-based.
The nature of assay [7]: Cytotoxicity against human OECM1 cells after 72 hrs by WST-1 assay. Type of assay: functional, cell-based. The note with it: OECM1, 72 h.
The next assay concerns PC-3. Briefly: Cytotoxicity against human PC3 cells after 72 hrs by WST-1 assay. Type of assay: functional, cell-based. The note with it: PC-3, 72 h.
Assay [8] is described as follows: Cytotoxicity against human U87 cells after 72 hrs by WST-1 assay. The format is functional, cell-based, U-87MG ATCC. The note with it: U-87 MG.
The test system of a further assay is Nucleic Acid. Briefly: Induction of DNA interstrand cross-linking in human H1299 cells at 100 uM under aerobic condition for 1 hr followed by irradiated with 20 Gy of X-ray by modified comet assay relative to irradiated untreated control. Type of assay: cell-based.

pIC50: −log10 of the molar value.

In general, pIC50 refers to the negative decadic logarithm of the IC50, by convention in mol/L. In the case of `COc1cccc(OC)c1-c1c(CO)c(CO)c2n1-c1ccccc1C2`, the pIC50 was 5.12 in the assay with CCRF-CEM [1]; 5.09 in the assay on CCRF-CEM [2] (read-out: IC50); 5.21 in the assay with CCRF-CEM [3]; 4.59 in the assay with MX1; 4.37 in the assay with HCT-116. Also, the “Ratio IC50” value in the assay on CCRF-CEM [4] turned out to be 0.92; in the assay on CCRF-CEM [5], 0.76.

Take `COc1ccc(-c2c(CO)c(CO)c3n2-c2ccccc2C3)cc1`: the negative-log IC50 (pIC50) with CCRF-CEM [1] was 5.80; in the assay on CCRF-CEM [2] (read-out: IC50), 5.92; with CCRF-CEM [3], 5.77; in the assay with MX1, 4.96; with HCT-116 it was 5.21; in assay [6], 4.30. Moreover, the negative-log IC50 (pIC50) in [7] was 5.03; with PC-3 it was 4.26; in [8], 4.34. Besides, the figures for the “Ratio IC50” value in the assay with CCRF-CEM [4] and in the assay with CCRF-CEM [5] were 1.4 and 1.5, respectively.

For the molecule `OCc1c(CO)c(-c2ccc(F)cc2)n2c1Cc1ccccc1-2`, the pIC50 was 4.96 in the assay on CCRF-CEM [1]; 5.35 in the assay on CCRF-CEM [2] (read-out: IC50); 5.14 in the assay on CCRF-CEM [3]; 4.66 in the assay with MX1; 5.06 with HCT-116. Besides, the “Ratio IC50” value in the assay on CCRF-CEM [4] amounted to 2.5; with CCRF-CEM [5] it was 1.6.

Turning to `OCc1c(CO)c(-c2ccc(F)c(F)c2)n2c1Cc1ccccc1-2`, the pIC50 was 5.12 in the assay with CCRF-CEM [1]; 5.28 in the assay with CCRF-CEM [2] (read-out: IC50); 5.12 in the assay on CCRF-CEM [3]; 5.15 with MX1; 4.96 in the assay with HCT-116. Besides, the “Ratio IC50” value in the assay on CCRF-CEM [4] and in the assay with CCRF-CEM [5] was 1.4 in each case.

In the case of `COc1ccccc1-c1c(CO)c(CO)c2n1-c1ccccc1C2`, the negative logarithm of the IC50 (pIC50) in the assay on CCRF-CEM [1] is 5.57; in the assay with CCRF-CEM [2] (read-out: IC50) it was 6.00; with CCRF-CEM [3], 5.72; in the assay on MX1, 5.06; with HCT-116 it was 4.92. In addition, the “Ratio IC50” value is 2.6 in the assay on CCRF-CEM [4] and 1.9 with CCRF-CEM [5].

Take `CNC(=O)OCc1c(COC(=O)NC)c2n(c1C)-c1ccccc1C2`: the pIC50 was 7.20 in the assay with CCRF-CEM [1]; 6.92 in the assay with CCRF-CEM [2] (read-out: IC50); 6.92 with CCRF-CEM [3]; 6.47 in the assay on MX1; 6.52 in the assay with HCT-116; less than 4.30 in [6]. Besides, the pIC50 in assay [7] is 5.84; with PC-3 it was 4.57; in [8], less than 4.30. Also, the “Ratio IC50” value came to 0.53 in the assay with CCRF-CEM [4] and 0.67 with CCRF-CEM [5].

On to `CNC(=O)OCc1c(COC(=O)NC)c(-c2ccc(F)c(F)c2)n2c1Cc1ccccc1-2`, for which the negative logarithm of the IC50 (pIC50) was 6.19 in the assay on CCRF-CEM [1]; 6.19 in the assay on CCRF-CEM [2] (read-out: IC50); 6.21 in the assay with CCRF-CEM [3]; 5.09 with MX1; 6.05 in the assay with HCT-116. For the same molecule, the “Ratio IC50” value in the assay with CCRF-CEM [4] is 1; in the assay on CCRF-CEM [5], 0.97.

Take `CCc1c(COC(=O)NC)c(COC(=O)NC)c2n1-c1ccccc1C2`: the pIC50 was 7.00 in the assay with CCRF-CEM [1]; 7.15 in the assay with CCRF-CEM [2] (read-out: IC50); 7.10 in the assay on CCRF-CEM [3]; 6.18 in the assay on MX1; 6.15 in the assay on HCT-116; less than 4.30 in [6]. Moreover, the values for the pIC50 (in assay [7]; with PC-3; in assay [8]) were 4.93, less than 4.30 and less than 4.30, respectively. In addition, the “Ratio IC50” value in the assay with CCRF-CEM [4] is 1.5; in the assay on CCRF-CEM [5] it was 1.2.

Consider `CNC(=O)OCc1c(COC(=O)NC)c(-c2cc(OC)c(OC)c(OC)c2)n2c1Cc1ccccc1-2`, for which the negative-log IC50 (pIC50) was 4.85 with CCRF-CEM [1]; 4.92 with CCRF-CEM [2] (read-out: IC50); 5.08 in the assay on CCRF-CEM [3]; 5.14 with MX1; 5.72 in the assay on HCT-116. Moreover, the figures for the “Ratio IC50” value in the assay on CCRF-CEM [4] and in the assay on CCRF-CEM [5] were 1.2 and 0.73, respectively.

Turning to `COc1cc(-c2c(CO)c(CO)c3n2-c2ccccc2C3)cc(OC)c1OC`, the pIC50 is 6.00 in the assay on CCRF-CEM [1]; 5.66 with CCRF-CEM [2] (read-out: IC50); 5.96 with CCRF-CEM [3]; 4.77 in the assay on MX1; 4.54 in the assay with HCT-116. The “Ratio IC50” value with CCRF-CEM [4] was 0.45; in the assay on CCRF-CEM [5], 0.52.

As to `OCc1c(CO)c(-c2ccccc2)n2c1Cc1ccccc1-2`, the negative-log IC50 (pIC50) with CCRF-CEM [1] is 6.60; in the assay on CCRF-CEM [2] (read-out: IC50) it was 6.60; in the assay on CCRF-CEM [3], 6.66; with MX1, 5.89; with HCT-116, 5.72. Besides, the “Ratio IC50” value with CCRF-CEM [4] is recorded as 1; with CCRF-CEM [5], 0.9.

With `COc1ccc(-c2c(CO)c(CO)c3n2-c2ccccc2C3)cc1OC`, the pIC50 in the assay with CCRF-CEM [1] was 5.72; in the assay on CCRF-CEM [2] (read-out: IC50) it was 6.00; in the assay with CCRF-CEM [3], 5.96; in the assay on MX1 it was 4.96; in the assay on HCT-116, 5.37. Also, the “Ratio IC50” value is on record as 1.8 in the assay on CCRF-CEM [4] and 1.1 with CCRF-CEM [5].

For `CNC(=O)OCc1c(COC(=O)NC)c(-c2c(OC)cccc2OC)n2c1Cc1ccccc1-2`, the negative logarithm of the IC50 (pIC50) with CCRF-CEM [1] was 6.21; in the assay with CCRF-CEM [2] (read-out: IC50), 6.19; with CCRF-CEM [3] it was 6.14; in the assay with MX1 it was 5.28; with HCT-116, 5.96. The results for the “Ratio IC50” value in the assay with CCRF-CEM [4] and in the assay with CCRF-CEM [5] were 0.97 and 1.1, respectively.

As to `CC(=O)O[C@H]1C(=O)[C@@]2(C)[C@H]([C@H](OC(=O)c3ccccc3)[C@]3(O)C[C@H](OC(=O)[C@H](O)[C@@H](NC(=O)c4ccccc4)c4ccccc4)C(C)=C1C3(C)C)[C@]1(OC(C)=O)CO[C@@H]1C[C@@H]2O` [PACLITAXEL], the pIC50 in the assay with CCRF-CEM [1] is 6.40; with CCRF-CEM [2], 8.92; with CCRF-CEM [3], 5.92. Further, the figures for the “Ratio IC50” value in the assay on CCRF-CEM [4] and with CCRF-CEM [5] were 333 and 1000, respectively.

Regarding `CNC(=O)OCc1c(COC(=O)NC)c(-c2ccc(F)cc2)n2c1Cc1ccccc1-2`, the pIC50 with CCRF-CEM [1] is 6.55; with CCRF-CEM [2] (read-out: IC50) it was 6.85; in the assay on CCRF-CEM [3], 6.52; in the assay with MX1, 6.13; with HCT-116 it was 6.40. Moreover, the “Ratio IC50” value with CCRF-CEM [4] amounted to 2; with CCRF-CEM [5], 2.2.

`CNC(=O)OCc1c(COC(=O)NC)c(-c2ccc(OC)c(OC)c2)n2c1Cc1ccccc1-2`: the negative logarithm of the IC50 (pIC50) in the assay on CCRF-CEM [1] is 6.30; with CCRF-CEM [2] (read-out: IC50), 6.46; with CCRF-CEM [3], 6.41; in the assay with MX1 it was 5.74; with HCT-116, 6.18. Moreover, the “Ratio IC50” value in the assay on CCRF-CEM [4] is 1.4; in the assay with CCRF-CEM [5], 1.1.

`CNC(=O)OCc1c(COC(=O)NC)c(-c2ccccc2)n2c1Cc1ccccc1-2`: the pIC50 in the assay on CCRF-CEM [1] is 6.26; with CCRF-CEM [2] (read-out: IC50), 6.44; with CCRF-CEM [3], 5.77; in the assay with MX1, 5.23; with HCT-116, 6.12. Also, the “Ratio IC50” value in the assay with CCRF-CEM [4] was 1.6; with CCRF-CEM [5], 4.7.

`CO[C@@]12[C@H](COC(N)=O)C3=C(C(=O)C(C)=C(N)C3=O)N1C[C@@H]1N[C@@H]12`: the Activity in the assay with Nucleic Acid came to 76.5%.

Consider `CC[C@]1(O)C[C@@H]2CN(CCc3c([nH]c4ccccc34)[C@@](C(=O)OC)(c3cc4c(cc3OC)N(C)[C@H]3[C@@](O)(C(=O)OC)[C@H](OC(C)=O)[C@]5(CC)C=CCN6CC[C@]43[C@@H]65)C2)C1` [VINBLASTINE], for which the “Ratio IC50” value with CCRF-CEM [4] was 107; with CCRF-CEM [5], 685.

Regarding `OCc1c(CO)c(-c2ccc(Cl)cc2)n2c1Cc1ccccc1-2`, the negative logarithm of the IC50 (pIC50) was 5.35 in the assay with CCRF-CEM [1]; 5.37 in the assay on CCRF-CEM [2] (read-out: IC50); 5.62 with CCRF-CEM [3]; 5.21 with MX1; 5.24 in the assay with HCT-116. Besides, the “Ratio IC50” value is reported as 1 in the assay on CCRF-CEM [4] and 0.55 in the assay on CCRF-CEM [5].

In the case of `CNC(=O)OCc1c(COC(=O)NC)c(-c2ccc(Cl)cc2)n2c1Cc1ccccc1-2`, the negative logarithm of the IC50 (pIC50) in the assay with CCRF-CEM [1] was 5.64; in the assay with CCRF-CEM [2] (read-out: IC50), 5.24; in the assay on CCRF-CEM [3], 5.48; with MX1, 5.00; with HCT-116 it was 5.05. The “Ratio IC50” value with CCRF-CEM [4] was 0.4; in the assay with CCRF-CEM [5], 0.58.

Values taken from ChEMBL document CHEMBL1152415, “Potent antitumor bifunctional DNA alkylating agents, synthesis and biological activities of 3a-aza-cyclopenta[a]indenes” (Bioorg Med Chem, 2009).
